Source: patent publication US6706509B2, “Oncoprotein protein kinase” (The Regents of the University of California, priority 1993, dated 2004)

Legend:
JNK1 = test: Epitope-tagged JNK1 protein kinase activity in transfected COS cells; assay type: cell-based; conditions: 10 nM EGF or 100 nM TPA
Method: JNK1 protein kinase activity was detected in the immune-complex. Immunecomplex kinase assays using either M2 immunoprecipitates or purified JNK1, JNK-46, and ERK1 or ERK2 were performed at 30° C. for 20 mins using 3 μg of substrate, 20 μM ATP and 5 μCi of [γ-^32P]ATP in 30 μl of kinase buffer (25 mM Hepes (pH 7.6), 20 mM MgCl2, 20 mM β-glycerophosphate, 20 mM p-nitrophenyl phosphate, 0.1 mM Na orthovanadate, 2 mM DTT). The reactions were terminated with Laemmli sample buffer and the products were resolved by SDS-PAGE (12% gel). JNK1 protein activity was also measured after SDS-PAGE by the in-gel kinase assay with the substrate GST-cJun(1-79) as described by Hibi, et al., supra, (1993). Solid-phase protein kinase assays were performed as described by Hibi, et al., supra, (1993). Clarified cell extracts were incubated with GST fusion proteins immobilized on GSH-agarose beads. After 3 hours at 4° C., the beads were washed extensively and bound JNK1 was detected by the addition of [γ-^32P]ATP. The reaction was terminated after 10 mins at 30° C. and the products were resolved by SDS-PAGE. The incorporation of [^32P]phosphate was visualized by autoradiography and quantitated with a phosphorimager and ImageQuant software (Molecular Dynamics Inc., Sunnyvale, Calif.). The methods used for phosphopeptide mapping (Boyle, et al., Cell 64:573-584, 1991) and phosphoamino acid analysis (Alvarez, et al., J. Biol. Chem 266:15227-15285, 1991) were described previously.
Epitope-tagged JNK1 was expressed in COS cells. Control experiments were performed using mock-transfected cells. After 48 hours, the cells were treated either without or with 100 nM TPA, 10 nM EGF, or 80 J/m^2 UV-C and incubated for 1 hr. The cells were lysed in RIPA buffer and the JNK1 proteins were isolated by immunoprecipitation with the M2 monoclonal antibody. JNK1 protein kinase activity was measured after SDS-PAGE using an in-gel kinase assay with the substrate GST-cJun(1-79) polymerized into the gel.
COS-1 cells were maintained in. Dulbecco's modified Eagle's medium supplemented with 5% […] (Gibco-BRL). Metabolic labeling with [^32P]phosphate was performed by incubation of cells in phosphate-free modified Eagle's medium (Flow Laboratories Inc.) supplemented with 0.1% fetal bovine serum and 1 mCi/ml [^32P]orthophosphate (Dupont-NEN). COS cells were treated with 10 nM EGF or 100 nM thorbol myristate acetate. The cells were then incubated for defined times at 37° C. prior to harvesting and measurement of JNK1 protein kinase activity. The data are presented as arbitrary units. […] In contrast, exposure to UV radiation caused a marked increase in JNK1 activity.

[1] = tested on: N-terminal c-Jun kinase (JNK); test: Solid-phase kinase assay of N-terminal c-Jun kinase activity in Jurkat cell extracts; assay type: cell-based, human; conditions: Jurkat cells, TPA 50 ng/ml, after 30 minutes
Method: (§1) Cell extracts were diluted so that the final composition of the WCE buffer was 20 mM HEPES pH 7.7, 75 mM NaCl, 2.5 mM MgCl2, 0.1 mM EDTA, 0.05% Triton X-100, 0.5 mM DTT, 20 mM β-glycerolphosphate, 0.1 mM Na3VO4, 2 μg/ml leupeptin, 100 μg/ml PMSF. The extracts were mixed with 10 μl of GSH-agarose suspension (Sigma) to which 10 μg of either GST or GST-Jun fusion proteins were bound. The mixture was rotated at 4° C. for 3 hours in a microfuge tube and pelleted by centrifugation at 10,000×g for 20 sec. After 4×1 ml washes in HEPES binding buffer (20 mM HEPES pH 7.7, 50 mM NaCl, 2.5 mM MgCl2, 0.1 mM EDTA, 0.05% Triton X-100), the pelleted beads were resuspended in 30 μl of kinase buffer (20 mM HEPES pH 7.6, 20 mM MgCl2, 20 mM β-glycerolphosphate, […] p-nitrophenyl phosphate, 0.1 mM Na3VO4, 2 mM DTT) containing 20 μM ATP and 5 μCi γ-^32P-ATP. After 20 minutes at 30° C. the reaction was terminated by washing with HEPES binding buffer. Phosphorylated proteins were eluted with 30 μl of 1.5×Laemlli sample buffer and resolved on a 10% SDS polyacrylamide gel, followed by autoradiography. Quantitation of phosphate incorporated was determined by gel slicing and scintillation counting. Phosphorylated GST fusion proteins were eluted from gel slices and subjected to phosphopeptide mapping as described (Boyle, et al., supra, 1991). […]

[2] = tested on: N-terminal c-Jun kinase (JNK); test: Solid-phase kinase assay of N-terminal c-Jun kinase activity in HeLa cell extracts; assay type: cell-based, human; conditions: HeLa S3 cells, TPA 100 ng/ml
Method: as §1

CCCCCCCCCCCCCC(=O)O[C@@H]1[C@@H](C)[C@@]2(O)[C@@H](C=C(CO)C[C@]3(O)C(=O)C(C)=C[C@@H]23)[C@H]2C(C)(C)[C@]12OC(C)=O [TPA]
JNK1 activation (JNK1): low level of JNK1 activation | duration of JNK1 activation (JNK1): approximately 2 hours | N-terminal kinase activity, activation [1]: 25 fold | N-terminal c-Jun kinase activity, effect of treatment [2]: minor compared to that of UV
